Measurements reported in PMC7948455, “Novel drug discovery platform for spinocerebellar ataxia, using fluorescence technology targeting β-III-spectrin” (The Journal of Biological Chemistry, 2020).
pKd: −log10 of the molar value. “And” between values parts separate entries of the source, which are not always exact repeats. Equal values may be shown once.

Columns and labels:
[1] = molecular target: T1, binding of the mutant β-III-spectrin L253P ABD to F-actin (Homo sapiens, UniProt O15020, L253P); assay: Primary live-cell FRET assay (GFP-ABD-L253P + Lifeact-mCherry) in HEK293-6E cells; type: cell-based; conditions: for Effect of Hit compound on primary FRET: LOPAC Hits (10 μM screen, 4SD threshold, 120 min) and dose response
T1 construct: the β-III-spectrin (human) ABD residues 1 to 284; expressed in transfected cells; host or cells: HEK293-6E (pTT5 vector, transient transfection)
Procedure: To develop a biosensor that monitors the binding of mutant L253P β-III-spectrin to actin filaments in live cells, a FRET approach was tested. A FRET donor construct consisting of green fluorescent protein fused to the N terminus of the mutant ABD (GFP-ABD-L253P) was coexpressed in HEK293-EBNA1-6E (HEK293-6E) cells with a FRET acceptor construct consisting of the actin-binding peptide, Lifeact, fused to the N terminus of red fluorescent protein, mCherry (Lifeact-mCherry). Lifeact is a 17 amino acid peptide derived from the yeast actin-binding protein, ABP140 ([15]). […] The cryo-EM structures of ABD L253P and Lifeact on actin indicate that the binding sites overlap on actin units. With ABD L253P and Lifeact bound on neighboring actin units, we predicted an average distance of ∼80 Å between GFP and mCherry (Fig. 1). With a known Förster distance R0 of 52.4 Å ([17]), this corresponds to FRET value of 0.07, a sufficient signal for a biosensor platform. To design a system most compatible for large production and eventual screening of 50,000+ compound libraries, we used HEK293-6E cells, a suspension cell line that yields greater levels (>threefold) of recombinant protein expression ([18], [19]).
With a constant amount of GFP-ABD-L253P expressed, increased Lifeact-mCherry expression increases FRET with an exponential plateau to 0.12 (Fig. 2A). To measure the nonspecific component of our FRET readout, we concurrently tested expression of mCherry in place of Lifeact-mCherry. For comparison, the Lifeact-mCherry and mCherry fluorescence intensity values (normalized to 1:1 GFP-ABD:Lifeact-mCherry sample) are plotted on the X-axis for samples transfected with different donor-to-acceptor DNA ratios. […] With the trade-off between high FRET and minimal nonspecific FRET, the donor:acceptor ratio 1:2 was chosen for the experiments that followed (Fig. 2A). […] Of note, we also tested the biosensor using WT-ABD, which yielded substantially lower FRET (Fig. S1), consistent with the 1000-fold decrease in affinity of WT-ABD for actin ([10]). We proceeded to test the compatibility of the GFP-ABD-L253P and Lifeact-mCherry assay for primary compound screening and the GFP-ABD-L253P and mCherry assay as a potential high-throughput counter screen.
To test the performance of the assay in HTS, the 1280 LOPAC compounds, together with 256 DMSO controls, were dispensed in 5 nl volumes into individual wells of 1536-well microplates and stored at −20 °C until use. To test the reproducibility of replicate screens on the same day, a single batch of HEK293 cells was transfected with GFP-ABD-L253P and Lifeact-mCherry. In addition, control cells were transfected with only GFP-ABD-L253P, to determine compound effect on donor-only lifetime (τD). To test reproducibility of the screens across different days, identical transfections were performed on another batch of HEK293-6E cells on a second day. Following plate thaw, 5 μl of assay cells were loaded in each well via a multidrop liquid dispenser, and a time course of compound effects (at 20, 120, and 180 min post load) on fluorescence lifetime was acquired using a fluorescence lifetime plate reader (FLT-PR). This technology has been advanced to high-density 1536-well plates in recent years for successful HTS using a range of protein biosensors including sarcoplasmic reticulum Ca-ATPase ([24], [25], [26], [27]), ryanodine receptor ([23], [28]), actin ([20]), tumor necrosis factor receptor 1 ([29], [30]), and tau ([31]).
At 2 × 10^6 cells/ml, HEK293-6E cells were transfected with GFP-ABD-L253P or GFP-ABD-WT (2.4 μg), Lifeact-mCherry (2.4–16.8 μg), mCherry (1.2–16.8 μg), and/or pTT5 (0.8–17.6 μg), as indicated, using the 293fectin protocol (Thermo Fisher Scientific) with 20 μg total DNA. Cells were transfected with either GFP-ABD-L253P or –WT, but coexpression of the WT and mutant isoform was not explored in this study. The cells were harvested 24 h later by centrifugation at 100g for 5 min and then washed twice with PBS. […]

[2] = molecular target: T2, Lifeact-mCherry binding to actin (Oryctolagus cuniculus, UniProt P68135); assay: F-actin and Lifeact-mCherry cosedimentation assay; conditions: for Effect on actin-Lifeact cosedimentation: 10 μM Hit compound
T2 construct: from tissue; host or cells: actin: rabbit psoas muscle; Lifeact-mCherry: made in house in E. coli (pE-SUMOpro)
Procedure: (§1) Actin was purified from acetone powder derived from the psoas muscle of New Zealand white rabbit (Oryctolagus cuniculus) ([46]). Filamentous (F)-actin was stored for up to 3 days on ice before use in binding assays. Within an hour of the binding assay, the F-actin was clarified at 100,000g at 4 °C for 10 min prior to setting up binding assays. The L253P β-III-spectrin ABD was expressed in E. coli BL21(DE3) (Novagen). The ABD was purified and the His-SUMO tag proteolytically removed, as previously described ([14]), except size-exclusion chromatography was not performed due to the high purity of the ABD protein. Lifeact-mCherry protein was similarly prepared. A Bradford assay was performed to determine clarified F-actin and ABD protein concentrations.
(§2) F-actin and ABD binding assays were performed as previously described ([10]). In brief, binding assays used 1 μM ABD protein, 1 μM F-actin, and 1 to 50 μM compound (as indicated) or DMSO control for a total reaction volume of 60 μl in F-buffer containing 10 mM Tris, pH 7.5, 150 mM NaCl, 0.5 mM ATP, 2 mM MgCl2, and 1 mM DTT. Following 30 min incubation at room temperature (21 °C). F-actin was pelleted using centrifugation at 100,000g at 25 °C for 30 min. Unbound ABD in the supernatant was measured following SDS-PAGE and Coomassie blue staining in accord ([10]). In addition, control cosedimentations assays that lacked actin were performed to test if compounds cause ABD aggregation. F-actin and Lifeact-mCherry binding assays were undertaken with 2 μM Lifeact-mCherry, 30 μM F-actin, and 1 to 50 μM compound (as indicated) or DMSO control for a total reaction volume of 80 μl in F-buffer. For a no-actin binding control, an assay sample with no F-actin was also set up. Binding reactions were allowed to reach equilibrium at room temperature (21 °C) for 30 min, and then F-actin was pelleted by centrifugation at 100,000g at 25 °C for 30 min. The amount of unbound Lifeact-mCherry was sampled by loading 7 μl of spin supernatant on a low-volume black bottom 384-well plate (Greiner). Amount of mCherry was determined by acquiring fluorescence spectrum peak intensity at ∼600 nm using a spectral unmixing plate reader (Fluorescence Innovations, Inc) equipped with a 532 nm laser (Laserglow Technologies, Ontario, Canada) for excitation, 532 nm long-pass filter for emission, and PMT for emission detection. The fraction of Lifeact-mCherry bound to F-actin was determined by subtracting from one the fraction of supernatant fluorescence intensity relative to the no-actin control sample:(3) Lifeactboundfraction=1−Fcompound/DMSO/FNo−actin where Fcontrol/DMSO is the peak mCherry fluorescence of assay samples containing compound or DMSO control, and Fno-actin is the peak mCherry fluorescence of assay samples that contained no F-actin.

[3] = tested on: HEK293-6E cells; assay: Trypan blue cell viability assay; type: cell-based
Procedure: HEK293-6E cell viability was measured using trypan blue (0.03%) staining and a Countess Automated Cell counter (Invitrogen). Nontransfected HEK293-6E cells were spun at 100g for 5 min at 21 °C and resuspended in 10 ml of PBS. The centrifugation and resuspension were repeated twice more. Final cell concentration was 1 × 10^6 cells/ml. Cells were incubated with 2% DMSO or 3 to 50 μM compound (as indicated) for 3 h at room temperature (21 °C). After addition of 100 μl of 0.06% trypan blue solution in PBS, 10 μl was loaded on a slide and injected into the cell counter, and cell viability was measured.

[4] = tested on: mammalian cells; conditions: cited from earlier work
[5] = molecular target: T3, ABD L253P (Homo sapiens, UniProt O15020, L253P); assay: Sedimentation of ABD L253P without actin (aggregation); conditions: 10 μM Hit compound, n = 4
T3 construct: the β-III-spectrin (human) ABD residues 1 to 284; His-SUMO (cleaved yes); made in house; host or cells: E. coli BL21(DE3), vector pE-SUMOpro
Procedure: In addition to a reduction in cell viability, the primary and counter screen may be sensitive to compounds that promote ABD-L253P protein aggregation. […] Our assay measuring ABD-L253P cosedimentation with actin is not sensitive to ABD aggregation, as it is designed to work under conditions where ∼90% ABD-L253P cosediments with actin. Nevertheless, we repeated these measurements in the absence of actin.
as §2

[6] = molecular target: T4, ABD-L253P binding to actin (Homo sapiens, UniProt O15020, L253P); assay: F-actin and ABD cosedimentation assay; conditions: 3 μM swinholide A, 50 μM tegaserod; n = 4
T4 construct: the β-III-spectrin (human) ABD residues 1 to 284; His-SUMO (cleaved yes); made in house; host or cells: E. coli BL21(DE3), vector pE-SUMOpro; actin from rabbit psoas muscle tissue
Procedure: as §1, §2

[7] = molecular target: actin filaments; conditions: read-out: Affinity for actin; cited from earlier work
[8] = 10 μM Hit compound, 3 h incubation

T3 sequence (O15020 1-284 L253P): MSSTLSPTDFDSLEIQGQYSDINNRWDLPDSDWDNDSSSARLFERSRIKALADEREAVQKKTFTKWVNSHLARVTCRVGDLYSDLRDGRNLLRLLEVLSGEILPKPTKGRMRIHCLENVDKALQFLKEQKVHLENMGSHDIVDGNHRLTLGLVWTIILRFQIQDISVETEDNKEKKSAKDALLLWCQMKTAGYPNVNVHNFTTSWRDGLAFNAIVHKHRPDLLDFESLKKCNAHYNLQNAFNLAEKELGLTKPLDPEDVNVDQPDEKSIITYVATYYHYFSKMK
T1 sequence (O15020 1-284 L253P): as above
T4 sequence (O15020 1-284 L253P): as above

Molecule | Effect of Hit compound on primary FRET [1] | Effect on actin-Lifeact cosedimentation [2] | Effect on ABD pelleting without actin (aggregation) [5] | Effect on HEK293-6E cell viability [3, 8] | other results
Cc1cc2c(C(C)C)c(O)c(O)c(C=O)c2c(O)c1-c1c(C)cc2c(C(C)C)c(O)c(O)c(C=O)c2c1O [gossypol] | decrease FRET |  | promote aggregation |  | Reduction of cell viability ([4]; 10 μM ref 36, 37, 38): < 10%
[H]/N=C(/NCCCCC)N/N=C/c1c[nH]c2ccc(OC)cc12 [tegaserod] |  |  |  |  | Reduction of Total FRET in primary FRET assay ([1]; 50 μM tegaserod, relative to DMSO): > 50% and 83%; Effect on ABD-L253P cosedimentation with actin [6]: no significant effect; Effect on Lifeact-mCherry cosedimentation with actin ([2]; 3 μM swinholide A, 50 μM tegaserod): did not alter; Effect on HEK293-6E cell viability ([3]; 3 μM swinholide A, 50 μM tegaserod, 3 h): greatly diminished; Decrease in cell viability ([3]; 50 μM tegaserod, 3 h): 92%
GFP-ABD-L253P: green fluorescent protein fused to N terminus of the mutant β-III-spectrin ABD (L253P); FRET donor |  |  |  |  | pKd [7]: 7.12

More lines, main results first:

Effect of Hit compound on primary FRET [1] | Effect on actin-Lifeact cosedimentation [2] | Effect on ABD pelleting without actin (aggregation) [5] | Molecule | Effect on HEK293-6E cell viability [3, 8] | other results
decrease FRET | decreased |  | CCCCCCCCCCCCCCCC(=O)OC(CC(=O)[O-])C[N+](C)(C)C (racemic) [palmitoyl-DL-carnitine] | dramatically reduced | Effect on cell viability in mammalian cells [4]: reduce cell viability
decrease FRET | decreased | promote aggregation | CC(C)(Sc1ccc(CCN(CCCCC2CCCCC2)C(=O)NC2CCCCC2)cc1)C(=O)O [GW7647] | dramatically reduced | 
decrease FRET |  | trend toward increasing | CCCc1c(-c2ccc(O)cc2)nn(-c2ccc(O)cc2)c1-c1ccc(O)cc1 [PPT] |  | 
decrease FRET | decreased |  | Clc1ccc(C(c2ccc(Cl)cc2)n2cc[n+](CC(OCc3ccc(Cl)cc3Cl)c3ccc(Cl)cc3Cl)c2)cc1 (centres unmarked) [calmidazolium] | dramatically reduced | Effect on cell viability in mammalian cells [4]: reduce cell viability
